How the values were obtained:
morningglory [1] = assay: Test A postemergence; type: in vivo, Ipomoea spp.
In short: (§1)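 Injury readout: eye-scored versus untreated controls, 0 to 100. Exposure period: ~10 days, greenhouse. Application: soil-directed spray over sown seed (pre) or spray on seedlings 2–10 cm tall with one or two leaves (post), compound carried in non-phytotoxic solvent including surfactant.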

velvetleaf [2] = assay: Test A postemergence; type: in vivo, Abutilon theophrasti
In short: as §1

wheat = assay: Test A postemergence; type: in vivo, Triticum aestivum
In short: as §1

sedge, umbrella = assay: Test B flood; type: in vivo, Cyperus difformis; settings: 250 g ai/ha, visual rating on 0 to 100 scale (0 no effect, 100 complete control), 13 to 15 days
In short: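 Paddy-water application: seedlings at 2-leaf stage, flood depth 3 cm maintained for the test duration. Evaluation after 13–15 days in the greenhouse by eye relative to controls; 0–100 scale.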

soybean = assay: Test C preemergence; type: in vivo, Glycine max
In short: (§2)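 Postemergence values come from plants sprayed at the 1- to 4-leaf stage (2–18 cm) in peat moss–vermiculite medium; preemergence values from seeds treated in a loam–sand blend. Both evaluated visually against controls after 13–15 greenhouse days, scale 0–100.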

barnyardgrass = assay: Test C preemergence; type: in vivo, Echinochloa crus-galli
In short: as §2

velvetleaf [3] = assay: Test C preemergence; type: in vivo, Abutilon theophrasti
In short: as §2

johnsongrass = assay: Test C postemergence; type: in vivo, Sorghum halepense; settings: for Plant response rating (scale of 0 to 100), Johnsongrass: 16 g ai/ha; for Johnsongrass plant response rating: scale 0 to 100; for Plant response rating (scale of 0 to 100 where 0 is no effect and 100 is complete control), Johnsongrass: visually evaluated after 13 to 15 days
In short: as §2

morningglory [4] = assay: Test C postemergence; type: in vivo, Ipomoea coccinea; settings: for Plant response rating (scale of 0 to 100), Morningglory: 16 g ai/ha; for Morningglory plant response rating: scale 0 to 100
From the text: Seeds of plant species selected from blackgrass (Alopecurus myosuroides), ryegrass, Italian (Italian ryegrass, Lolium multiflorum), wheat (winter wheat, Triticum aestivum), galium (catchweed bedstraw, Galium aparine), corn (Zea mays), crabgrass, large (large crabgrass, Digitaria sanguinalis), foxtail, giant (giant foxtail, Setaria faberii), johnsongrass (Sorghum halepense), lambsquarters (Chenopodium album), morningglory (Ipomoea coccinea), nutsedge, yellow (yellow nutsedge, Cyperus esculentus), pigweed (redroot pigweed, Amaranthus retroflexus), ragweed (common ragweed, Ambrosia elation), soybean (Glycine max), barnyardgrass (Echinochloa crus-galli), oilseed rape (Brassica napus), waterhemp (common waterhemp, Amaranthus rudis), oat, wild (wild oat, Avena fatua), kochia (Kochia scoparia), Surinam grass (Brachiaria decumbens), foxtail, green (green foxtail, Setaria viridis), goosegrass (Eleusine indica), bromegrass, downy (downy bromegrass, Bromus tectorum), nightshade (eastern black nightshade, Solanum ptycanthum), cocklebur (common cocklebur, Xanthium strumarium), cupgrass, woolly (woolly cupgrass, Eriochloa villosa), bermudagrass (Cynodon dactylon), sunflower, (common oilseed sunflower, Helianthus annuus), Russian thistle (Salsola kali), and velvetleaf (Abutilon theophrasti) were planted into a blend of loam soil and sand and treated preemergence with test chemicals formulated in a non-phytotoxic solvent mixture which included a surfactant.
At the same time, plants selected from these crop and weed species and also chickweed (common chickweed, Stellaria media), canarygrass (littleseed canarygrass, Phalaris minor), and deadnettle (henbit deadnettle, Lamium amplexicaule), were planted in pots containing Redi-Earth® planting medium (Scotts Company, 14111 Scottslawn Road, Marysville, Ohio 43041) comprising spaghnum peat moss, vermiculite, wetting agent and starter nutrients and treated with postemergence applications of test chemicals formulated in the same manner. Plants ranged in height from 2 to 18 cm (1- to 4-leaf stage) for postemergence treatments. Treated plants and controls were maintained in a greenhouse for 13 to 15 days, after which time all species were compared to controls and visually evaluated. Plant response ratings, summarized in Table C, are based on a scale of 0 to 100 where 0 is no effect and 100 is complete control. A dash (-) response means no test result.

oat, wild = assay: Test C postemergence; type: in vivo, Avena fatua; settings: for Plant response rating (scale of 0 to 100), Oat, Wild: 16 g ai/ha; for Oat, Wild plant response rating: scale 0 to 100; for Plant response rating (scale of 0 to 100 where 0 is no effect and 100 is complete control), Oat, Wild: visually evaluated after 13 to 15 days
In short: as §2

velvetleaf [5] = assay: Test C postemergence; type: in vivo, Abutilon theophrasti; settings: for Plant response rating (scale of 0 to 100), Velvetleaf / Plant response rating (scale of 0 to 100 where 0 is no effect and 100 is complete control), Velvetleaf: Postemergence; for Plant response rating (scale of 0 to 100), Velvetleaf: 16 g ai/ha; for Velvetleaf plant response rating / Plant response rating, Velvetleaf: postemergence; for Velvetleaf plant response rating: 62 g ai/ha, scale 0 to 100; for Plant response rating (scale of 0 to 100 where 0 is no effect and 100 is complete control), Velvetleaf: 31 g ai/ha, visually evaluated after 13 to 15 days
In short: as §2

chickweed = assay: Test C postemergence; type: in vivo, Stellaria media; settings: for Plant response rating (scale of 0 to 100), Chickweed: 16 g ai/ha; for Chickweed plant response rating: scale 0 to 100; for Plant response rating (scale of 0 to 100 where 0 is no effect and 100 is complete control), Chickweed: visually evaluated after 13 to 15 days
In short: as §2

[6] = Postemergence, 500 g ai/ha, visual rating after approx. 10 days, 0 to 100 scale (0 no effect, 100 complete control)
[7] = postemergence, 125 g ai/ha, about 10 days, visual rating on 0 to 100 scale (0 no effect, 100 complete control)
[8] = Preemergence, 16 g ai/ha, scale 0 to 100
[9] = preemergence, 31 g ai/ha, scale 0 to 100 (0 no effect, 100 complete control), 13 to 15 days
[10] = preemergence, 62 g ai/ha, 13 to 15 days, scale 0 to 100, 0 = no effect, 100 = complete control
[11] = preemergence, 125 g ai/ha, scale 0 to 100, 0 is no effect, 100 is complete control
[12] = postemergence, 125 g ai/ha, scale 0 to 100, 0 no effect, 100 complete control
[13] = 125 g ai/ha, scale 0 to 100, 0 no effect, 100 complete control
[14] = postemergence, 250 g ai/ha, scale 0 to 100 (0 no effect, 100 complete control)

SMILES | Morningglory plant response rating (morningglory [1]; [6]) | Morningglory plant response rating (morningglory [1]; [7]) | Velvetleaf plant response rating (velvetleaf [2]; [6]) | Velvetleaf plant response rating (velvetleaf [2]; [7]) | Wheat plant response rating (wheat; [6]) | Wheat plant response rating (wheat; [7]) | Plant response rating, Sedge, Umbrella (sedge, umbrella) | Soybean plant response rating (soybean; [9]) | Plant response rating, Soybean (soybean; [10]) | Soybean plant response rating (soybean; [11]) | Barnyardgrass plant response rating (barnyardgrass; [9]) | Plant response rating, Barnyardgrass (barnyardgrass; [10]) | Barnyardgrass plant response rating (barnyardgrass; [11]) | Velvetleaf plant response rating (velvetleaf [3]; [9]) | Plant response rating, Velvetleaf (velvetleaf [3]; [10]) | Velvetleaf plant response rating (velvetleaf [3]; [11]) | Johnsongrass plant response rating (johnsongrass; postemergence, 62 g ai/ha) | Plant response rating, Johnsongrass (johnsongrass; [12]) | Morningglory plant response rating (morningglory [4]; postemergence, 62 g ai/ha) | Plant response rating, Morningglory (morningglory [4]; [12]) | other results
CCCNC(=O)c1cc(CC)n(Cc2ccnc(C(F)(F)F)c2)n1 [Compound 75] | 100 | 100 | 100 | 90 | 90 | 80 | 85 | 85 | 98 | 98 | 100 | 100 | 100 | 75 | 100 | 100 | 10 | 10 | 80 | 98 | Plant response rating, Soybean (soybean; [8]): 35; Plant response rating, Barnyardgrass (barnyardgrass; [8]): 60; Plant response rating, Velvetleaf (velvetleaf [3]; [8]): 60; Plant response rating (scale of 0 to 100), Johnsongrass (johnsongrass; Postemergence): 10; Johnsongrass plant response rating (johnsongrass; Postemergence, 31 g ai/ha): 10; Plant response rating (scale of 0 to 100), Morningglory (morningglory [4]; Postemergence): 25; Morningglory plant response rating (morningglory [4]; Postemergence, 31 g ai/ha): 75; Plant response rating (scale of 0 to 100), Oat, Wild (oat, wild; Postemergence): 5; Oat, Wild plant response rating (oat, wild; Postemergence, 31 g ai/ha): 5; Oat, Wild plant response rating (oat, wild; postemergence, 62 g ai/ha): 5; Plant response rating, Oat, Wild (oat, wild; [12]): 25; Plant response rating (scale of 0 to 100), Velvetleaf (velvetleaf [5]): 25; Velvetleaf plant response rating (velvetleaf [5]): 35; Plant response rating, Velvetleaf (velvetleaf [5]; [13]): 40; Plant response rating (scale of 0 to 100), Chickweed (chickweed; Postemergence): 65; Chickweed plant response rating (chickweed; Postemergence, 31 g ai/ha): 65; Chickweed plant response rating (chickweed; postemergence, 62 g ai/ha): 70; Plant response rating, Chickweed (chickweed; [12]): 85
CCc1cc(C(=O)NC2CC2)nn1Cc1ccnc(C(F)(F)F)c1 [Compound 76] | 100 | 70 | 90 | 30 | 90 | 80 | 80 | 80 | 98 | 98 | 95 | 100 | 100 | 75 | 85 | 100 | 0 | 25 | 75 | 85 | Plant response rating (scale of 0 to 100), Soybean (soybean; Preemergence, 250 g ai/ha): 100; Plant response rating (scale of 0 to 100), Barnyardgrass (barnyardgrass; Preemergence, 250 g ai/ha): 100; Plant response rating (scale of 0 to 100), Velvetleaf (velvetleaf [3]; Preemergence, 250 g ai/ha): 100; Plant response rating (scale of 0 to 100 where 0 is no effect and 100 is complete control), Johnsongrass (johnsongrass; Postemergence, 31 g ai/ha): 0; Plant response rating, Johnsongrass (johnsongrass; [14]): 25; Plant response rating (scale of 0 to 100 where 0 is no effect and 100 is complete control), Morningglory (morningglory [4]; Postemergence, 31 g ai/ha, visually evaluated after 13 to 15 days): 75; Plant response rating, Morningglory (morningglory [4]; [14]): 98; Plant response rating (scale of 0 to 100 where 0 is no effect and 100 is complete control), Oat, Wild (oat, wild; Postemergence, 31 g ai/ha): 5; Oat, Wild plant response rating (oat, wild; postemergence, 62 g ai/ha): 5; Plant response rating, Oat, Wild (oat, wild; [14]): 25; Plant response rating, Oat, Wild (oat, wild; [12]): 5; Plant response rating (scale of 0 to 100 where 0 is no effect and 100 is complete control), Velvetleaf (velvetleaf [5]): 15; Velvetleaf plant response rating (velvetleaf [5]): 40; Plant response rating, Velvetleaf (velvetleaf [5]; 250 g ai/ha, scale 0 to 100 (0 no effect, 100 complete control)): 80; Plant response rating, Velvetleaf (velvetleaf [5]; [13]): 60; Plant response rating (scale of 0 to 100 where 0 is no effect and 100 is complete control), Chickweed (chickweed; Postemergence, 31 g ai/ha): 50; Chickweed plant response rating (chickweed; postemergence, 62 g ai/ha): 80; Plant response rating, Chickweed (chickweed; [14]): 85; Plant response rating, Chickweed (chickweed; [12]): 80
CCONC(=O)c1cc(CC)n(Cc2ccnc(C(F)(F)F)c2)n1 [Compound 77] | 90 | 100 | 100 | 80 | 50 | 40 | 80 | 10 | 20 | 50 | 20 | 75 | 100 | 35 | 60 | 100 | 5 | 5 | 20 | 40 | Plant response rating, Soybean (soybean; [8]): 0; Plant response rating, Barnyardgrass (barnyardgrass; [8]): 10; Plant response rating, Velvetleaf (velvetleaf [3]; [8]): 30; Plant response rating (scale of 0 to 100), Johnsongrass (johnsongrass; Postemergence): 5; Plant response rating (scale of 0 to 100 where 0 is no effect and 100 is complete control), Johnsongrass (johnsongrass; Postemergence, 31 g ai/ha): 5; Plant response rating (scale of 0 to 100), Morningglory (morningglory [4]; Postemergence): 10; Plant response rating (scale of 0 to 100), Oat, Wild (oat, wild; Postemergence): 5; Plant response rating (scale of 0 to 100 where 0 is no effect and 100 is complete control), Oat, Wild (oat, wild; Postemergence, 31 g ai/ha): 5; Oat, Wild plant response rating (oat, wild; postemergence, 62 g ai/ha): 5; Plant response rating, Oat, Wild (oat, wild; [12]): 5; Plant response rating (scale of 0 to 100), Velvetleaf (velvetleaf [5]): 10; Plant response rating (scale of 0 to 100 where 0 is no effect and 100 is complete control), Velvetleaf (velvetleaf [5]): 15; Velvetleaf plant response rating (velvetleaf [5]): 15; Plant response rating, Velvetleaf (velvetleaf [5]; [13]): 20; Plant response rating (scale of 0 to 100), Chickweed (chickweed; Postemergence): 50; Plant response rating (scale of 0 to 100 where 0 is no effect and 100 is complete control), Chickweed (chickweed; Postemergence, 31 g ai/ha): 50; Chickweed plant response rating (chickweed; postemergence, 62 g ai/ha): 55; Plant response rating, Chickweed (chickweed; [12]): 60
